# Experimental data from patent US20080234132A1, “Microcin B17 Analogs And Methods For Their Preparation And Use” (priority 2004, published 2008).
# *1 amine or outer side, *2 acyl side, *3 side chain or, on linkers, in order; H or OH if unused. Where a SMILES comes first, the peptide text is derived from it. [ ]: non-standard residue; d: D form. X2 = O=C(c1c[nH]c(CN[*:1])c1)[*:2]
# What was measured:
# HeLa cells = experiment: MTT cell viability assay, HeLa; format: cell-based, human; settings: Homo sapiens, HeLa; 24 hours, MTT; read-out: In vivo HeLa Cells, approximate IC50
# Method: (§4) Human cell cultures were initiated from frozen cell stocks (the gift of Dr J. Gavrilovic, UEA). […] Both human cell lines form adherent cultures and were maintained at 37° C. in T25 culture vessels as 10 mL cultures in CO2 Independent Media containing 10% foetal bovine serum (EU approved), 4 mM L-glutamine, penicillin/streptomycin (Invitrogen). […] Media was renewed every three days.
# (§5) After incubation with MTT and solubilization, the resulting coloured solution is quantified using a scanning spectrophotometer. […] Cell viability was then determined by addition of MTT reagent (20 μL) in each well, as per manufacturer's instructions and incubated for a further 4 hours. Solubilization solution (100 μL) was added per well and the plates incubated overnight at 37° C. The plates were read in a spectrophotometer (scanning from 500-650 nm, signal peak at 570 nm).
# HT-29 cells = experiment: MTT cell viability assay, HT-29; format: cell-based, human; settings: Homo sapiens, HT-29; 24 hours, MTT; read-out: In vivo HT29 Cells, approximate IC50
# Method: as §4, §5
# Human topoisomerase IIα = Human topoisomerase IIα (Homo sapiens, UniProt P11388); experiment: Human topoisomerase IIα-mediated relaxation assay; format: biochemical; set-up: purchased TopoGEN Inc; settings: topoisomerase assays (FIG. 27)
# Method: Human Topoisomerase IIα-mediated relaxation assays and decatenation assays were performed as per the manufacturer's instructions in a total of 20 μL. Relaxation assays contained Topoisomerase IIα (4.3 nM), 50 mM Tris.HCl pH 8,120 mM KCl, 10 mM MgCl2, 0.5 mM DTT, 0.5 mM ATP, 4.6 nM of supercoiled pBR322 DNA, and inhibitor where appropriate. Decatenation assays substituted the supercoiled DNA with 200 ng catenated kinetoplast DNA.
# All in vitro reactions were incubated at 37° C. for 30 minutes. The DMSO concentration in each reaction was kept constant at 3.33%. Reactions were quenched with the addition of an equal volume of phenol/chloroform/isoamyl alcohol (25:24:1) and one tenth volume of loading buffer containing 40% sucrose, 100 mM Tris.HCl pH 7.5, 100 mM EDTA, 2 mg/mL bromophenol blue. The proteins were precipitated by vortexing, followed by centrifugation for 5 minutes at 16 000 g. The aqueous phase was loaded onto 1% agarose gels in Tris-acetate and were electrophoresed at 60 V for three hours in Tris-acetate buffer. The gels were stained in 1 μg/mL ethidium bromide. The gels were visualised using UV light and were documented and analysed using Syngene software.
# [1] = molecular target: T1, E. coli DNA gyrase A2B2, MG1655 wild type (Escherichia coli, UniProt P0AES4+P0AES6); format: biochemical
# Source text: ATP hydrolysis by DNA gyrase was linked to the oxidation of NADH using a pyruvate Kinase (PK)/lactate dehydrogenase (LDH) coupled enzyme assay and measured at 340 nm on a Spectramax Plus Microplate. […] DMSO was kept constant at 2%.
# Experimental data were fitted and treated with the following equation:
# where L represents the inhibitor concentration, v represents the rate of the ATPase reaction, and v0 represents the rate in absence of inhibitor. The IC50 is deduced from the equation 2:
# [2] = molecular target: E. coli DNA gyrase A2B2, W751R mutant (Trp751→Arg in DNA gyrase B subunit) (Escherichia coli, UniProt P0AES4+P0AES6, W751R); settings: FIG. 18
# Method: ATP hydrolysis by DNA gyrase was linked to the oxidation of NADH using a pyruvate Kinase (PK)/lactate dehydrogenase (LDH) coupled enzyme assay and measured at 340 nm on a Spectramax Plus Microplate. The ATPase assay was similar to that described previously by Pierrat & Maxwell, 2005. Each 100 μL reaction contained 50 mM Tris.HCl (pH 7.5), 24 mM KCl, 5 mM MgCl2, 6.5% (w/w) glycerol, 4 mM dithiotreitol, 0.4 mM NADH, 0.8 mM phosphorenol-pyruvate, 1% (w/w) PK/LDH mixture (Sigma), 51 nM-153 nM gyrase enzyme and the drug tested at varying concentrations. DMSO was kept constant at 2%. The reactions were measured in the presence or absence of linear DNA pBR322 at fixed concentration of 8.4 nM. Reactions were initiated by the addition of 10 mM Mg.ATP and measured at 25° C. over 1.5 hours.
# DNA-dependent ATPase reactions were tested with the wild type enzyme A2B2 and the W751R mutant enzyme. In these DNA-dependent ATPase assays, the concentration of wild type A2B2 is 51 nM, the concentration of W751R mutant enzyme is 106 nM.
# [3] = tested on: Arabidopsis thaliana ecotype Columbia seeds; experiment: Seed germination, Arabidopsis thaliana; format: in vivo; settings: three week period
# Source text: Germination begins when the dormant dry seed begins to take up water (imbibition from the surface sterilization process). Primary roots emerge while the seed is in the culture media. Subsequently the hypocotyls emerge and elongate to pull the cotyledons above the culture media surface. After straightening up, the cotyledons arrange into an horizontal position, as shown in the Figure, and, then spread apart in order to expose the first true leaves and the apical meristem (growing tip).
# (§1) The microcin derivatives were tested for efficacy in planta against Arabidopsis thaliana ecotype Columbia according to known methods (see Wall et al., 2004). Seeds were germinated on sterile media containing the appropriate peptide and the effects were observed over a three week period. […] In […] seeds, such as A. thaliana, during imbibition the quiescent seed rapidly resumes metabolic and respiratory activity. One of the first steps, as part of this process, is the initiation of mitochondrial DNA synthesis which requires DNA gyrase and which may explain the exquisite sensitivity of the germinating seeds to Peptides 1 and 2.
# [4] = tested on: Arabidopsis thaliana ecotype Columbia plants; experiment: Effects on A. thaliana seedlings and plants; format: in vivo
# Method: as §1
# (§2) The leaf tissue initially turned yellow, followed by rapid necrosis of the tissue (see FIG. 32). […] The high hydrophility of Peptide 1 may preferentially allow the compound to readily diffuse through the leaf cuticle and epidermis to the mesophyll and phloem below.
# (§3) The heterocyclic compounds were also spotted onto the leaves of 4 week old, tissue culture grown Arabidopsis thaliana ecotype Columbia plants (see FIG. 34, panels A-1). […] The browning and necrosis diffused through the full thickness of the leaf over the next 60 minutes (see FIG. 34, panel F) and spread towards the meristem (see FIG. 34, panels E, F, H). Complete necrosis of the meristem and newly emerged leaves, where organellar replication takes place, was complete within 24 hours (see FIG. 34, panel F).
# [5] = tested on: A. thaliana ecotype Columbia seeds; experiment: Seed germination of A. thaliana; format: in vivo, Arabidopsis thaliana
# DNA gyrase A2B2 = DNA gyrase A2B2 (Escherichia coli, UniProt P0AES4+P0AES6); experiment: biochemical; format: biochemical, E. coli
# Method: Relaxation assays were performed in a manner analogous to that described by Pierrat et al., 2005. Briefly, relaxation assays were performed as for the supercoiling assay but with some modifications: ATP and spermidine were omitted. Gyr A and Gyr B were added to a solutions containing 35 mM of Tris.HCl (pH=7.5), 24 mM of KCl, 4 mM of MgCl2, 1.8 mg/mL of spermidine, 6.5% of glycerol, 0.36 mg/mL of BSA, 9 μg/mL of tRNA, 5 mM of DTT, 2 mM of ATP and 24 nM of relaxed pBR322 DNA. […] The amount of DMSO was kept constant at 3.33%. The reactions were incubated at 25° C., and at each time point 30 μL aliquots were quenched with the addition of an equal volume of chloroform/isoamyl alcohol (24:1) and a half volume of loading buffer STEB (40% sucrose/100 mM Tris HCl, pH 7.5/100 mM EDTA/2 mg/mL bromophenol blue). The mixtures then were vortexed and centrifuged for 1 minute at 13,000 rpm. The aqueous phase was loaded onto 1% agarose, TAE (40 mM Tris-acetate, 1 mM EDTA) gels and were run at either 30 V overnight in TAE (in the cold room) or 70 V for 2.5 hours in TAE. The gels were stained for about 20 minutes in TAE containing 1 μg/mL ethidium bromide followed by destaining in multiple washes of TAE. The data were analysed using Syngel software.
# DNA gyrase = DNA gyrase (Escherichia coli, UniProt P0AES4+P0AES6); format: biochemical, E. coli
# Method: GyrA and GyrB were added to solutions containing 35 mM Tris.HCl (pH, 7.5), 24 mM KCl, 4 mM MgCl2, 1.8 mM spermidine, 6.5% glycerol, 0.36 mg/mL BSA, 9 μg/mL tRNA, 5 mM DTT, 2 mM ATP and 10 nM relaxed pBR322 DNA. […] The reactions were incubated at 25° C., and at each time point 30-μl aliquots were quenched with 1 μL of 10% SDS and 2 μL of 2 mg/ml proteinase K. Quenched aliquots were kept on ice until the experiment was completed, at which time they were incubated at 37° C. for half an hour. An equal volume of chloroform/isoamyl alcohol (24:1) and a half volume of loading buffer STEB (40% sucrose/100 mM Tris HCl, pH 7.5/1 mM EDTA/2 mg/ml bromophenol blue) were added, and the mixtures then were vortexed and centrifuged for 1 min at 13,000 rpm. The aqueous phase was loaded onto 1% agarose, TAE (40 mM Tris-acetate, 1 mM EDTA) gels that contained 1 μg/ml ethidium bromide and were run at either 30 V overnight in TAE containing 1 μg/ml ethidium bromide (in the cold room) or 70 V for 2.5 hours in TAE containing 1 μg/ml ethidium bromide.
# E. coli MG1655 = experiment: Halo assay, wild-type E. coli MG1655; format: cell-based
# Method: Lawns of cells were prepared by spreading, on top of a LB+Agar plate, 3 ml of melted LSS medium (half-agar strength: 0.3 g Agar/50 ml LB) inoculated with 100 μl of a 10 ml LB overnight culture of E. coli cells grown at 37° C. […] The plates were incubated at 37° C. overnight and growth inhibition was qualitatively analysed by measuring the diameter of each halo.
# [6] = molecular target: DNA gyrase (MG 1655 A2B2) (Escherichia coli, UniProt P0AES4+P0AES6); experiment: biochemical; set-up: species or system E. coli
# Method: GyrA and GyrB were added to a solution containing 35 mM Tris.HCl (pH, 7.5), 24 mM KCl, 4 mM MgCl2, 1.8 mM spermidine, 6.5% glycerol, 0.36 mg/mL BSA, 9 μg/mL tRNA, 5 mM DTT, 2 mM ATP and 24 nM relaxed pBR322 DNA. […] The reactions were incubated at 25° C., and at each time point 30-μl aliquots were quenched with 1 μL of 10% SDS. An equal volume of chloroform/isoamyl alcohol (24:1) and a half volume of loading buffer STEB (40% sucrose/100 mM Tris.HCl, pH 7.5/100 mM EDTA/2 mg/ml bromophenol blue) were added, and the mixtures then were vortexed and centrifuged for 1 min at 13,000 rpm. The aqueous phase was loaded onto 1% agarose, TAE (40 mM Tris-acetate, 1 mM EDTA) gels and were run at either 30 V overnight in TAE (in the cold room) or 70 V for 2.5 hours. The gels were stained for about 20 min in TAE containing 1 μg/ml ethidium bromide followed by destaining in multiple washes of TAE.
# Solubility = settings: water
# [7] = tested on: Arabidopsis thaliana ecotype Columbia plants; experiment: Effects on whole plants/seedlings, Arabidopsis thaliana; format: in vivo
# Source text: as §2, §3
# [8] = molecular target: T1, E. coli DNA gyrase A2B2, MG1655 wild type; settings: Flatman et al., 2004; cited from earlier work
# [9] = molecular target: T2, E. coli DNA gyrase A2B2, wild type (Escherichia coli, UniProt P0AES4+P0AES6); settings: Flatman et al., 2004; cited from earlier work
# [10] = molecular target: T1, E. coli DNA gyrase A2B2, MG1655 wild type; settings: Flatman et al., 2004; cited from earlier work; remark: listed apart in the source
# [11] = molecular target: T2, E. coli DNA gyrase A2B2, wild type; settings: Flatman et al., 2004; cited from earlier work; remark: listed apart in the source
# Sequence of Human topoisomerase IIα (P11388 whole entry): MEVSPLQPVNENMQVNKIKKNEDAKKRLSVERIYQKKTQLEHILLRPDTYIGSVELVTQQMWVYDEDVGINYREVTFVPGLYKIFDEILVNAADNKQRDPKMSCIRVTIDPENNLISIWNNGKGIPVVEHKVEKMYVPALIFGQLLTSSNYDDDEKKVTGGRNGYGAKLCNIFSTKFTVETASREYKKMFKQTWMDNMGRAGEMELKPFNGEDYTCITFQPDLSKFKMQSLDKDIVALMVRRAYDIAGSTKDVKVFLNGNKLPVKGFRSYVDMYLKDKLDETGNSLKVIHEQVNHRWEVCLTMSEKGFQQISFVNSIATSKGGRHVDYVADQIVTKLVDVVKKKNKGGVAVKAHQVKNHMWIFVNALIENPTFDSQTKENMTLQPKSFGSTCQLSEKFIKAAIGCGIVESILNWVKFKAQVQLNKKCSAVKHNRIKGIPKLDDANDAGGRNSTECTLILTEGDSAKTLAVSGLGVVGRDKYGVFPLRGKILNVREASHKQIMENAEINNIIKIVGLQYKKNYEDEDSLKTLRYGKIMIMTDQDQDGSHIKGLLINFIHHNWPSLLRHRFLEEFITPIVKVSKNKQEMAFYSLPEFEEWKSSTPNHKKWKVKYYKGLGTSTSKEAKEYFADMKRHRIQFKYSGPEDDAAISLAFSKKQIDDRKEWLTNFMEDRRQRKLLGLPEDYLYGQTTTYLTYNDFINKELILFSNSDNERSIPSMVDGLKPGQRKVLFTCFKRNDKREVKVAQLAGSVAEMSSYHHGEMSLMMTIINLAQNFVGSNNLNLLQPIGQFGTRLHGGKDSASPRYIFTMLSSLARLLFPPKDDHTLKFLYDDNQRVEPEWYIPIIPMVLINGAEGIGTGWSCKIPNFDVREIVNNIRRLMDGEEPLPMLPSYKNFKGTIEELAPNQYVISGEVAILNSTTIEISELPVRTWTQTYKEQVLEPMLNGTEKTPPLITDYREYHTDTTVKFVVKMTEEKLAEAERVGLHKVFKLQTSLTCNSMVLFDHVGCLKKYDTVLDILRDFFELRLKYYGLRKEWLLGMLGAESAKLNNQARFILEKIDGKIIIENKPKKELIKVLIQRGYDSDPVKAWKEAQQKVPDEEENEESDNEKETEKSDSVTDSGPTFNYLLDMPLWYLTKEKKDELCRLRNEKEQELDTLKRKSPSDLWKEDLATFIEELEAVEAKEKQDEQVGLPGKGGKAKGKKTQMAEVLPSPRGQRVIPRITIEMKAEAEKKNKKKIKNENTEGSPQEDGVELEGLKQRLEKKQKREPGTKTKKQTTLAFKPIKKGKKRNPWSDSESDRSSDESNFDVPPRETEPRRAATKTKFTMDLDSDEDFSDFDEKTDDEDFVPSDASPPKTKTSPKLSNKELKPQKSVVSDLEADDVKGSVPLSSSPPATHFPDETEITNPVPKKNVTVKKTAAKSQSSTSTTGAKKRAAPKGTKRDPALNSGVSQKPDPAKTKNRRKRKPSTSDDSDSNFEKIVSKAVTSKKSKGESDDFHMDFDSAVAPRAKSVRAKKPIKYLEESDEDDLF
smiles,measurement,setting,value
NCc1nc(C(=O)O)cs1 [deBoc-thiazole],IC50,HeLa cells,~75 µM
same,IC50,HT-29 cells,~15 µM
same,IC50 of deBoc-thiazole compared with thiazole compound,Human topoisomerase IIα,no difference to the calculated IC50 values
O=C(O)c1cn(C2CC2)c2cc(N3CCNCC3)c(F)cc2c1=O [Ciprofloxacin],Inhibition of DNA-dependent ATPase,[1],slow down this ATPase hydrolysis rate of both wild type and mutant enzyme
same,"DNA-dependent ATPase, W751R mutant (novobiocin, ciprofloxacin)",[2],slow down this ATPase hydrolysis rate of both wild type and mutant enzyme
C[C@H](NC(=O)CNC(=O)CNC(=O)c1c[nH]c(CNC(=O)[C@H](C)NC(=O)CNC(=O)[C@@H](N)CCC(N)=O)c1)C(=O)O [Peptide 2] (H-QGA[X2]GGA-OH),Inhibition of seed germination,[3],able to inhibit germination of the seeds
same,effect on 4-week old plants transferred to media containing the compound,"[4]; 100 μM Peptide 1, 200 μM Peptide 2","induced tumourous, undifferentiated cell growth"
same,effect on 6-week old seedlings,[4]; in vivo,induces tumour-like growth
same,effect on seed germination,[5]; 100 μM,only a bleaching effect
same,effect on seed germination,[5]; 150 μM,seed germination occurred but the growth is slower compared with the untreated seeds
same,effects on 6-week old seedlings and germinating seeds,[5]; 200 μM,the same as the effects observed for 100 μM Peptide 1
same,activity against seed germination,[5]; concentrations tested,able to inhibit germination
same,potency relative to Peptide 1 in plant assays,[5]; in vivo,half the potency of Peptide 1
same,IC50,DNA gyrase A2B2,> 100 µM
same,concentration at which the relaxation reaction is inhibited,"DNA gyrase A2B2; A2B2 70 nM, MccB17 tested at 25 μM",200 µM
same,stabilisation of the cleaved DNA-enzyme (cleavage) complex,"DNA gyrase; Peptide 1 at 100 μM, [A2B2]=30 nM, up to 1 h",Neither Peptide 1 nor Peptide 2 stabilise
same,Cleavage (IC50 μM),DNA gyrase; Table 4,inactive
same,haloassay activity relative to Peptide 1,E. coli MG1655,twice less active than Peptide 1
same,supercoiling activity relative to Peptide 1,[6]; FIG. 13,about half as active as Peptide 1
same,IC50,"[6]; Supercoiling (IC50 μM) MG 1655 A2B2, Table 4",> 100 µM
same,solubility,Solubility,1000 µM
same,Effect on 4-week old plants,[7]; 200 μM,"induced tumourous, undifferentiated cell growth in the meristematic region and petioles"
same,effect on 6-week old seedlings,[7]; observed at 150 μM (FIG. 26),induces tumour-like growth near the apical meristem zone
CC(=O)O[C@@H]1[C@@H](C)O[C@@H](c2ccc3c(c2O)[C@@H](O)[C@]24O[C@@]2(C3=O)[C@@]2(O)C(=O)C=C(C)C[C@@]2(O)C[C@@H]4O)C[C@H]1OC(=O)/C=C/C=C/C=C/C=C/C(=O)Nc1c(O)c2ccc(O)c(Cl)c2oc1=O [simocyclinone D8],Inhibition of supercoiling reaction,[8],inhibits the supercoiling and relaxation reactions
same,Cleavage complex formation / quinolone cleavage,[9],does not stimulate the gyrase-dependent cleavage complex formation but antagonizes quinolone cleavage
same,Inhibition of ATPase reaction,[10],not the ATPase reaction
same,Inhibition of relaxation reaction,[11],inhibits the supercoiling and relaxation reactions
